# From patent publication US20220112149A1, “DRUG DESIGN METHOD ASSOCIATED WITH NATURAL PRODUCTS, PENTACYCLIC TRITERPENOID COMPOUND, PREPARATION METHOD AND APPLICATIONS THEREOF” (Huazhong Agricultural University, priority 2020, published 2022)
# Tests used:
# [1] = tested on: ICAM-1 expression in HMEC-1 cells; experiment: LPS-induced ICAM-1 expression in HMEC-1 cells, flow cytometry; type: cell-based, human
# Procedure: (3) Screening candidate molecules with the strongest ICAM-1 inhibitory activity by simulating the physiological model of inflammation that human microvascular endothelial cells (HMEC-1) expressing cell adhesion molecules (ICAM-1) mediate lymphocytes to penetrate blood vessels to infiltrate the damaged tissues. The specific steps are as follows:
# (§1) 1) Culture of HMEC-1 cells: HMEC-1 cells are cultured in MCDB131 medium (U.S. Sigma) that contain 10% fetal bovine serum (FBS, Zhejiang Tianhang Biotechnology Co., Ltd.), double antibody (100 U/mL penicillin and 100 μg/mL streptomycin), 1 μg/mL hydrocortisone (Sangon Biotech (Shanghai) Co., Ltd.) and 10 ng/mL human recombinant growth factor (hEGF, Sangon Biotech (Shanghai) Co., Ltd.) at 37° C., 5% CO2, and 100% RH.
# 2) HMEC-1 cells are inoculated into a 24-well plate, and cultured in a cell incubator at 37° C., 5% CO2, and 100% RH. When the cells grow to 80% abundance, different concentrations of drugs are added for 3 h (1 μM Celastrol as a positive control drug). At the end of treatment, 1 μg/mL LPS is added to activate the NF-κB signaling pathway for 12 hours. After activation, the supernatant medium is discarded, and washed three times with PBS, and 100 μL of 0.25% pancreatin (containing 0.5 mM EDTA) is added to digest in a 37° C. incubator for 3 min. When most of cells are shed, 150 μL of MCDB131 complete medium is added to terminate the digestion, shaken for 3 min, then cells are transferred to a V-shaped 96-well plate (Corning), centrifuged at 4° C., 3000 rpm for 3 min to precipitate cells. Then the supernatant medium is discarded, 100 μL of pH=7.4 buffer A (PBS+0.5% BSA+1 mM MgCl2) is added to each well, to wash once, centrifuged at 4° C., 3000 rpm for 3 min, and the buffer A is aspirated. To each well, 100 μL of PBS solution containing 5% bovine serum albumin is added, and shaken and blocked at 120 rpm for 30 min at room temperature; after blocking, centrifuged at 4° C. and 2000 rpm for 3 min, and the supernatant is discarded, 20 μl of buffer A containing 5 μg/mL of primary antibody anti-ICAM-1 antibody LB-2, shaken and incubated at room temperature at 120 rpm for 1 h, using the buffer A without adding anti-ICAM-1 antibody LB-2 as the negative control. By detecting anti-ICAM-1 fluorescence value by flow cytometry, the expression of ICAM-1 protein in HMEC-1 cells is detected indirectly. Three duplicate wells are established for each concentration. PBS is set as a blank control, 1 uM of Celastrol is set as a positive control, to analyze the inhibitory effect of different concentrations of drugs on the expression level of ICAM-1.
# as §1, with “U/ml” for “U/mL”, “μg/ml” for “μg/mL”, “Biotech)” for “Biotech (Shanghai) Co., Ltd.)”, “ng/ml” for “ng/mL”
# HMEC-1 cells are inoculated into a 24-well plate, and cultured in a cell incubator at 37° C., 5% CO2, and 100% RH. When the cells grow to 80% abundance, different concentrations of drugs are added for 3 h (1 μM Celastrol as a positive control drug). At the end of treatment, 1 μg/mL LPS is added to activate the NF-κB signaling pathway for 12 hours. After activation, the supernatant medium is discarded, and washed three times with PBS, and 100 μL of 0.25% pancreatin (containing 0.5 mM EDTA) is added to digest in a 37° C. incubator for 3 min. When most of cells are shed, 150 μL of MCDB131 complete medium is added to terminate the digestion, shaken for 3 min, then cells are transferred to a V-shaped 96-well plate (Corning), centrifuged at 4° C., 3000 rpm for 3 min to precipitate cells. Then the supernatant medium is discarded, 100 μL of pH=7.4 buffer A (PBS+0.5% BSA+1 mM MgCl2) is added to each well, to wash once, centrifuged at 4° C., 3000 rpm for 3 min, and the buffer A is aspirated. […]
# [2] = tested on: NF-κB signaling in HEK293 cells; experiment: NF-κB luciferase reporter gene system; type: cell-based; settings: Homo sapiens, HEK293, read-out: inhibition of the fluorescence signal (NF-κB luciferase reporter)
# Procedure: FIGS. 10A-10C show the inhibition verification effect chart of GA-02 in Example 5, where FIG. 10A: GA-02 inhibited LPS-induced ICAM-1 expression activity. The inflammatory pathway of HMEC-1 cell was activated by 1 μg/mL LPS, to determine the effect of Celastrol and GA-02 on the expression of ICAM-1 induced by LPS. FIG. 10B: The effect of GA-02 on NF-κB signaling. The NF-κB luciferase reporter plasmid was used to transfect HEK293 cells, and the effects of Celastrol and GA-02 on the NF-κB activity induced by TNF-α were determined; FIG. 10C: qRT-PCR was used to detect mRNA relative expressions of IL-1β, TNF-α, IL-6 and MCP-1.
# ICAM-1 is a downstream effector molecule regulated by NF-κB signaling pathway, and NF-κB plays an important role in regulating the expression of ICAM-1 gene. Celastrol can inhibit the activation of the LPS-induced IKK/NF-κB signaling pathway. In order to validate that GA-02 functions through the IKK/NF-κB signaling pathway, we constructed an NF-κB luciferase reporter gene system to validate the inhibitory activity of Celastrol and GA-02 on the luciferase reporter gene. […] In addition, both Celastrol and GA-02 could down-regulate the mRNA transcription levels of inflammatory factors IL-1β, TNF-α, IL-6 and MCP-1 activated by LPS.
# mice = settings: cited from earlier work
# [3] = in vivo; cited from earlier work
# [4] = tested on: high-fat-induced obese mice; experiment: GA-03 in high-fat-induced obese mouse model, intraperitoneal; type: in vivo, C57BL/6 mice
# Procedure: Animals are fed with 60% calorie high-fat diets (purchased from Bio-medicine) for 14 consecutive weeks. […] When the blood glucose is greater than 11 mmol/L and the body weight is greater than 42 g, the administration is started. […] The injection volume is […]. In addition, a vehicle (25 μL DMSO) is established. […] Mice in the blank group and GA-02 treatment group underwent pathological anatomy, to observe the changes in organs before and after administration. Samples are taken to prepare pathological sections.
# The model is constructed by feeding high-fat diets to C57BL/6 male mice for 14 weeks, as shown in FIGS. 22A-22D, obese model mice with a body weight greater than 42 g and blood glucose level higher than 11 mmol/L. Model mice are grouped by blood glucose and body weight. […]
# mildly obese mice = experiment: GA-03 in mildly obese mouse model, intraperitoneal; type: in vivo, C57BL/6 mice; settings: intraperitoneal injection
# Procedure: Animals are fed with common diets (purchased) for 14 consecutive weeks. […] When the body weight is greater than 30 g, the administration is started. […] The injection volume is 25 μL per day.
# lean mice = settings: mouse, in vivo, ip
# Procedure: Six-week-old SPF-grade C57BL/6 mice (purchased from Hubei Provincial Center for Disease Control and Prevention) are fed in SPF animal house at a room temperature of 22° C., 4 mice per cage. Animals are fed with common diets (purchased) for 2 consecutive weeks. Mice are free to take food and the padding is changed every two days, and the body weights and blood glucose are monitored every week. When the body weight is greater than 22 g, the administration is started. The drug is dissolved in DMSO solvent and administered by intraperitoneal injection. The injection volume is 25 μL per day. In addition, a vehicle and positive drug control are established. The food intake and body weight changes of mice in each group are measured every day. On Days 1 and 21, the blood routine and blood biochemical parameters are monitored. At the same time, the glucose tolerance test (GTT) and insulin tolerance test (ITT) are carried out.
# normal rats = settings: cited from earlier work
# [5] = tested on: mice with hereditary diabetes; settings: cited from earlier work
# [6] = high-dose (8 mg/kg) i.p., second day
# [7] = high-dose (8 mg/kg) i.p., third day
# [8] = low-, medium- and high-dose (2, 4, 8 mg/kg) i.p.
compound,measurement,setting,value
"CC1(C)[C@@H](O)CC[C@]2(C)[C@H]3C(=O)C=C4[C@@H]5C[C@@](C)(C(=O)O)CC[C@]5(C)CC[C@@]4(C)[C@]3(C)CC[C@@H]12 [18-β-glycyrrhetinic acid, reference compound]",ICAM-1 inhibitory activity among the candidate triterpene natural products,"[1]; HMEC-1, 1 μg/mL LPS, FIG. 3",best ICAM-1 inhibitory activity
CC1=C(O)C(=O)C=C2C1=CC=C1[C@@]2(C)CC[C@@]2(C)[C@@H]3C[C@](C)(C(=O)O)CC[C@]3(C)CC[C@]12C [Celastrol],inhibition at 1 µM,[2],70%
same,"toxicity to the brains, hearts and livers",mice; dose of 1 mg/kg,serious toxicity
same,lethality rate,mice; dose of 4 mg/kg,40%
same,bioavailability,[3],17.06%
"11-dicarbonyl-12-ene-2α,3β-dihydroxy-oleanane [GA-03]",anti-inflammatory activity compared with reference compounds,[1],basically equivalent to that of GA-02 and superior to 18β-glycyrrhetinic acid
same,body weight reduced by,"[4]; high dose 8 mg/kg i.p., three weeks",33.80±2.95%
same,body weight after three weeks of administration,"[4]; high dose 8 mg/kg i.p., from 47.49±0.97 g",31.45 ± 1.81 g
same,liver function indexes AST and ALT vs vehicle control group,[4]; high-dose (8 mg/kg) i.p.,significantly lower
same,average daily food intake,"[4]; high-dose (8 mg/kg) i.p., first day of administration, day 0: 3.14±0.40 g",0.65 ± 0.02 g
same,body weight,"[4]; high-dose (8 mg/kg) i.p., first day, from 47.49±0.97 g",46.18 ± 0.95 g
same,average daily food intake,[4]; [6],0.57 ± 0.01 g
same,body weight,[4]; [6],44.74 ± 0.76 g
same,average daily food intake,[4]; [7],0.66 ± 0.06 g
same,body weight,[4]; [7],43.13 ± 0.65 g
same,lipid droplets in the liver (oil red O and H&E staining),"[4]; high-dose (8 mg/kg) i.p., three weeks",completely disappeared
same,effect on appetite suppression and weight reduction,"[4]; intraperitoneal injection, obese mice",strong effect
same,body weight reduced by,"[4]; low dose 2 mg/kg i.p., three weeks",20.40±1.89%
same,body weight after three weeks of administration,"[4]; low dose 2 mg/kg i.p., from 47.11±1.32 g",37.49 ± 1.28 g
same,fasting blood glucose levels,[4]; [8],reduce to a normal level
same,weights of liver and epididymal fat compared to the vehicle control group,[4]; [8],decrease in a dose-dependent manner
same,blood glucose tolerance (GTT) and insulin tolerance (ITT),"[4]; low-, medium- and high-dose groups, i.p.",significantly improved
same,body weight reduced by,"[4]; medium dose 4 mg/kg i.p., three weeks",27.63±3.39%
same,body weight after three weeks of administration,"[4]; medium dose 4 mg/kg i.p., from 46.94±1.41 g",33.99 ± 2.30 g
same,effect on appetite suppression and weight reduction,mildly obese mice,obvious effect
same,effect on the food intake and body weight,lean mice,no effect
C[C@H]1[C@H](C)CC[C@]2(C(=O)O)CC[C@]3(C)C(=CC[C@@H]4[C@@]5(C)C[C@@H](O)[C@H](O)C(C)(C)[C@@H]5CC[C@]43C)[C@H]12 [corosolic acid],blood glucose lowering,normal rats,significant effect of lowering blood glucose
same,blood glucose lowering,[5],significant effect of lowering blood glucose
